Laboratory results published in patent US8853258B2, “C-linked hydroxamic acid derivatives useful as antibacterial agents” (Pfizer Inc., priority 2009, dated 2014).
Converted amounts (≈) assume the structure as drawn. Where two headings read alike, the source gives them in different places.

Key:
[1] = tested on: Escherichia coli EC-1: VOGEL, mouse virulent; test: MIC determination (CLSI), EC-1; format: cell-based; conditions: for MIC: Escherichia coli
In short: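 E. coli Vogel, a mouse-virulent strain (EC-1), was tested. MICs were set by dilution susceptibility testing per CLSI standards M7-A7/M100-S18.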

[2] = molecular target: Pseudomonas aeruginosa LpxC enzyme (Pseudomonas aeruginosa (strain ATCC 15692 / DSM 22644 / CIP 104116 / JCM 14847 / LMG 12228 / 1C / PRS 101 / PAO1), UniProt P47205); test: IC50 Assay, LpxC Enzyme from P. aeruginosa (PA LpxC Enzyme IC50); format: biochemical
In short: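 Reaction run 1 h then stopped with 1N HCl. Conversion measured by RapidFire high-throughput mass spectrometry. IC50 derived from percent conversion relative to a no-enzyme control.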

[3] = tested on: Acinetobacter baumanii/haemolyticus: Multidrug-resistant clinical isolate (AB-3167); test: MIC determination (CLSI), AB-3167; format: cell-based; conditions: for MIC: Acinetobacter baumannii
In short: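 Multidrug-resistant clinical isolate AB-3167 (A. baumannii/haemolyticus) tested for minimum inhibitory concentration following CLSI dilution susceptibility standards M7-A7 and M100-S18.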

[4] = tested on: Klebsiella pneumoniae: Ciprofloxacin-resistant isolate, ESBL, clinical isolate (KP-3700); test: MIC determination (CLSI), KP-3700; format: cell-based
In short: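 MIC measured by broth dilution according to CLSI M7-A7 and M100-S18 standards. Test organism was a ciprofloxacin-resistant, ESBL-expressing clinical isolate.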

[5] = tested on: Pseudomonas aeruginosa UI-18: Wild-type (PA-7); test: MIC determination (CLSI), PA-7; format: cell-based; conditions: for MIC: Pseudomonas aeruginosa
In short: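 MIC by dilution method per CLSI M7-A7 and M100-S18 guidelines. Strain: wild-type Pseudomonas aeruginosa UI-18.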

[6] = Table 1, read-out: PA LpxC enzyeme IC50
[7] = Table 1, MIC, read-out: AB-3167 (MIC)
[8] = Table 1, MIC, read-out: PA-7 (MIC)
[9] = Table 3, read-out: PA LpxC enzyeme IC^50
[10] = Escherichia coli EC-1 VOGEL, mouse virulent
[11] = P. aeruginosa LpxC enzyme, read-out: PA LpxC enzyeme IC50
[12] = Acinetobacter baumanii/haemolyticus multidrug-resistant clinical isolate AB-3167
[13] = Pseudomonas aeruginosa UI-18 wild-type PA-7

Structure (SMILES) | KP-3700 MIC [4] | EC-1 MIC [1, 10] | IC50 [2, 11] [nM] | AB-3167 MIC [3, 12] | PA-7 MIC [5, 13] [µg/mL] | further results
CC(CCc1ccc(-c2ccc([N+](=O)[O-])cc2)cc1)(C(=O)NO)S(C)(=O)=O (racemic) [Example 5, (+/−)-N-hydroxy-2-methyl-2-(methylsulfonyl)-4-(4′-nitrobiphenyl-4-yl)butanamide] | 1 µg/mL | – | – | – | – | MIC ([1]; read-out: EC-1: (MIC)): 0.5 µg/mL (≈ 1.27 µM); IC50 [2, 6]: 0.12 nM; MIC [3, 7]: 32 µg/mL (≈ 81.5 µM); MIC [5, 8]: 0.5 µg/mL (≈ 1.27 µM)
CC(CCc1ccc(OCc2cccnc2)cc1)(C(=O)NO)S(C)(=O)=O (stereo not drawn) [Example 303, N-hydroxy-2-methyl-2-(methylsulfonyl)-4-[4-(pyridin-3-ylmethoxy)phenyl]butanamide] | ≧64 mg/L | – | – | – | – | MIC ([1]; read-out: EC-1 MIC): ≥ 64 µg/mL; IC50 [2, 9]: 4.58 nM; MIC ([3]; Table 3, read-out: AB-3167 MIC): ≥ 64 µg/mL; MIC ([5]; Table 3, read-out: PA-7 MIC): 16 µg/mL (≈ 42.3 µM)
CC(CCc1ccc(OCc2nc(-c3ccccc3)no2)cc1)(C(=O)NO)S(C)(=O)=O (stereo not drawn) [Example 308, N-hydroxy-2-methyl-2-(methylsulfonyl)-4-{4-[(3-phenyl-1,2,4-oxadiazol-5-yl)methoxy]phenyl}butanamide] | 16 µg/mL | – | – | – | – | MIC ([1]; read-out: EC-1 MIC): 4 µg/mL (≈ 8.98 µM); IC50 [2, 9]: 2.56 nM; MIC ([3]; Table 3, read-out: AB-3167 MIC): ≥ 64 µg/mL; MIC ([5]; Table 3, read-out: PA-7 MIC): 32 µg/mL (≈ 71.8 µM)
Cc1ccc(-c2ccc(CCC(C)(C(=O)NO)S(C)(=O)=O)cc2)cc1C (stereo not drawn) [Example 83] | 4 µg/mL | 1 µg/mL | 0.242 | 8 µg/mL | 2 | –
CC(CCc1ccc(-c2ccc3c(c2)C(=O)NC3)cc1F)(C(=O)NO)S(C)(=O)=O (stereo not drawn) [Example 196] | 16 µg/mL | 4 µg/mL | 0.631 | ≧64 mg/L | 4 | –
CC(CCc1ccc(-c2cccnc2)c(F)c1)(C(=O)NO)S(C)(=O)=O (stereo not drawn) [Example 197] | ≧64 mg/L | ≧64 mg/L | 7.11 | ≧64 mg/L | 8 | –
CC(CCc1ccc(-c2ccsc2)cc1)(C(=O)NO)S(C)(=O)=O (stereo not drawn) [Example 77] | 16 µg/mL | 8 µg/mL | 0.991 | ≧64 mg/L | 2 | –
CC(CCc1ccc(-c2cccc(Cl)c2Cl)cc1)(C(=O)NO)S(C)(=O)=O (stereo not drawn) [Example 59] | 2 µg/mL | 0.5 µg/mL | 0.213 | 2 µg/mL | 2 | –
C[C@@](CCc1ccc(-c2ccc(C(=O)CO)cc2)cc1)(C(=O)NO)S(C)(=O)=O [Example 186] | 4 µg/mL | 2 µg/mL | 0.238 | ≧64 mg/L | 1 | –
CN1CCN(c2ccc(-c3ccc(CCC(C)(C(=O)NO)S(C)(=O)=O)cc3)cc2)CC1 (stereo not drawn) [Example 166] | 16 µg/mL | 4 µg/mL | 1.17 | ≧64 mg/L | 2 | –
CC(C)(O)CCc1ccc(-c2ccc(CCC(C)(C(=O)NO)S(C)(=O)=O)cc2)cc1 (stereo not drawn) [Example 158] | 8 µg/mL | 0.5 µg/mL | 0.644 | 32 µg/mL | 4 | –
CC(CCc1ccc(-c2ccccc2Cl)cc1)(C(=O)NO)S(C)(=O)=O (stereo not drawn) [Example 81] | 8 µg/mL | 2 µg/mL | 0.448 | 32 µg/mL | 1 | –
CC(CCc1ccc(-c2ccc(O)cc2)cc1F)(C(=O)NO)S(C)(=O)=O (stereo not drawn) [Example 178] | 4 µg/mL | 1 µg/mL | 0.0592 | 8 µg/mL | 1 | –
Cc1cccc(-c2ccc(CCC(C)(C(=O)NO)S(C)(=O)=O)cc2)c1C (stereo not drawn) [Example 78] | 16 µg/mL | 2 µg/mL | 0.444 | ≧64 mg/L | 2 | –
CC(CCc1ccc(-c2cc(F)c(C#N)c(F)c2)cc1)(C(=O)NO)S(C)(=O)=O (stereo not drawn) [Example 127] | 8 µg/mL | 1 µg/mL | 0.15 | 32 µg/mL | 2 | –
C[C@@](CCc1ccc(-c2ccc3c(c2)CNC3=O)cc1)(C(=O)NO)S(C)(=O)=O [Example 199] | 32 µg/mL | 8 µg/mL | 0.266 | ≧64 mg/L | 2 | –
CC(=O)c1ccc(-c2ccc(CCC(C)(C(=O)NO)S(C)(=O)=O)cc2)cc1 (stereo not drawn) [Example 108] | 2 µg/mL | 0.5 µg/mL | 0.176 | 32 µg/mL | 0.5 | –
CC(CCc1ccc(-c2cccc(Cl)c2)cc1)(C(=O)NO)S(C)(=O)=O (stereo not drawn) [Example 88] | 4 µg/mL | 1 µg/mL | 0.364 | 4 µg/mL | 1 | –
Cc1cccnc1COc1ccc(CCC(C)(C(=O)NO)S(C)(=O)=O)cc1 (stereo not drawn) [Example 287, N-hydroxy-2-methyl-4-{4-[(3-methylpyridin-2-yl)methoxy]phenyl}-2-(methylsulfonyl)butanamide] | ≧64 mg/L | – | – | – | – | MIC ([1]; read-out: EC-1 MIC): ≥ 64 µg/mL; IC50 [2, 9]: 3.14 nM; MIC ([3]; Table 3, read-out: AB-3167 MIC): ≥ 64 µg/mL; MIC ([5]; Table 3, read-out: PA-7 MIC): 16 µg/mL (≈ 40.8 µM)
CC(CCc1ccc(-c2ccc(C(=O)CO)cc2)cc1F)(C(=O)NO)S(C)(=O)=O (stereo not drawn) [Example 183] | 4 µg/mL | 2 µg/mL | 0.387 | ≧64 mg/L | 2 | –
CC(CCc1ccc(OCc2ccccn2)cc1)(C(=O)NO)S(C)(=O)=O (racemic) [Example 16, (+/−)-N-Hydroxy-2-methyl-2-(methylsulfonyl)-4-[4-(pyridin-2-ylmethoxy)phenyl]butanamide] | ≧64 mg/L | – | – | – | – | MIC ([1]; read-out: EC-1: (MIC)): ≥ 64 µg/mL; IC50 ([2]; PA LpxC enzyeme IC50, Table 1): 5.01 nM; MIC [3, 7]: ≥ 64 µg/mL; MIC [5, 8]: 16 µg/mL (≈ 42.3 µM)
CC(CCc1ccc(OCc2ccc(Cl)cc2F)cc1)(C(=O)NO)S(C)(=O)=O (stereo not drawn) [Example 307, 4-{4-[(4-chloro-2-fluorobenzyl)oxy]phenyl}-N-hydroxy-2-methyl-2-(methylsulfonyl)butanamide] | 8 µg/mL | – | – | – | – | MIC ([1]; read-out: EC-1 MIC): 2 µg/mL (≈ 4.65 µM); IC50 [2, 9]: 0.393 nM; MIC ([3]; Table 3, read-out: AB-3167 MIC): 16 µg/mL (≈ 37.2 µM); MIC ([5]; Table 3, read-out: PA-7 MIC): 4 µg/mL (≈ 9.3 µM)
COc1ccc(-c2ccc(CC[C@](C)(C(=O)NO)S(C)(=O)=O)cc2)cn1 [Example 212] | 16 µg/mL | – | 0.237 | – | – | EC-1 MIC ([1]; Escherichia coli EC-1): 4 µg/mL; AB-3167 MIC ([3]; Acinetobacter baumanii/haemolyticus AB-3167): ≧64 mg/L; PA-7 MIC ([5]; Pseudomonas aeruginosa UI-18 (PA-7)): 1 µg/mL
Cc1cc(-c2ccccc2)ccc1CCC(C)(C(=O)NO)S(C)(=O)=O (stereo not drawn) [Example 1, N-Hydroxy-2-methyl-4-(3-methylbiphenyl-4-yl)-2(methylsulfonyl)butanamide] | 8 µg/mL | – | – | – | – | MIC ([1]; read-out: EC-1: (MIC)): 2 µg/mL (≈ 5.53 µM); IC50 [2, 6]: 1.68 nM; MIC [3, 7]: 16 µg/mL (≈ 44.3 µM); MIC [5, 8]: 4 µg/mL (≈ 11.1 µM)
CC(CCc1ccc(-c2ccc(C#N)cc2F)cc1)(C(=O)NO)S(C)(=O)=O (stereo not drawn) [Example 128] | 8 µg/mL | 0.5 µg/mL | 0.232 | ≧64 mg/L | 0.5 | –
C#CCOc1ccc(CCC(C)(C(=O)NO)S(C)(=O)=O)cc1 (stereo not drawn) [Example 265, N-hydroxy-2-methyl-2-(methylsulfonyl)-4-[4-(prop-2-yn-1-yloxy)phenyl)butanamide] | ≧64 mg/L | – | – | – | – | MIC ([1]; read-out: EC-1 MIC): ≥ 64 µg/mL; IC50 [2, 9]: 105 nM; MIC ([3]; Table 3, read-out: AB-3167 MIC): ≥ 64 µg/mL; MIC ([5]; Table 3, read-out: PA-7 MIC): 16 µg/mL (≈ 49.2 µM)
CCCCCc1noc(COc2ccc(CCC(C)(C(=O)NO)S(C)(=O)=O)cc2)n1 (stereo not drawn) [Example 295, N-hydroxy-2-methyl-2-(methylsulfonyl)-4-{4-[(3-pentyl-1,2,4-oxadiazol-5-yl)methoxy]phenyl}butanamide] | ≧64 mg/L | – | – | – | – | MIC ([1]; read-out: EC-1 MIC): 32 µg/mL (≈ 72.8 µM); IC50 [2, 9]: 12.5 nM; MIC ([3]; Table 3, read-out: AB-3167 MIC): ≥ 64 µg/mL; MIC ([5]; Table 3, read-out: PA-7 MIC): ≥ 64 µg/mL
CC(CCc1ccc(COc2ccccc2)cc1)(C(=O)NO)S(C)(=O)=O (stereo not drawn) [Example 25, N-Hydroxy-2-methyl-2-(methylsulfonyl)-4-[4-(phenoxymethyl)phenyl]butanamide] | 16 µg/mL | – | – | – | – | MIC ([1]; read-out: EC-1: (MIC)): 4 µg/mL (≈ 10.6 µM); IC50 [2, 6]: 2.38 nM; MIC [3, 7]: 16 µg/mL (≈ 42.4 µM); MIC [5, 8]: 8 µg/mL (≈ 21.2 µM)
Cc1cc(F)ccc1-c1ccc(CCC(C)(C(=O)NO)S(C)(=O)=O)cc1 (stereo not drawn) [Example 98] | 16 µg/mL | 4 µg/mL | 1.23 | 32 µg/mL | 2 | –
CC(CCc1ccc(OCc2ccccc2F)cc1)(C(=O)NO)S(C)(=O)=O (stereo not drawn) [Example 242, 4-{4-[(2-fluorobenzyl)oxy]phenyl}-N-hydroxy-2-methyl-2-(methylsulfonyl)butanamide] | 8 µg/mL | – | – | – | – | MIC ([1]; read-out: EC-1 MIC): 4 µg/mL (≈ 10.1 µM); IC50 [2, 9]: 0.655 nM; MIC ([3]; Table 3, read-out: AB-3167 MIC): ≥ 64 µg/mL; MIC ([5]; Table 3, read-out: PA-7 MIC): ≥ 64 µg/mL
